Residues, ends and D or L forms follow the SMILES beside them. No end group written: not given here. *: point of attachment. Myristoyl = CCCCCCCCCCCCCC(=O)*
What was measured:
[1] = target: T1, IRK (Homo sapiens, UniProt P06213); conditions: cited from earlier work
[2] = tested on: Akt1; test: Akt kinase activity immunoprecipitated from HEK cells, Crosstide substrate; format: cell-based; conditions: genistein 50 μM added 30 minutes prior to peptide or insulin
Method: Cells were serum starved overnight, and treated with myristoylated peptides and insulin as in FIG. 5A. Genistein (50 μM) was added to cells 30 minutes prior to treatment with peptide or insulin. Akt1 was immunoprecipitated from the lysates and kinase activity was measured using Crosstide as substrate.
Thus, Akt kinase activity was measured in cells loaded with either P2 or the scrambled P2 peptide, P2sc. Cell lysates were immunoprecipitated with anti-Akt antibody and immunoprecipitates were examined for phosphorylation of crosstide, an Akt specific substrate.

[3] = target: T2, IRK (insulin receptor β-subunit) (Homo sapiens, UniProt P06213); test: IRK kinase activity in vitro towards IRS peptide substrate; format: biochemical; conditions: 20 μM peptide
T2 construct: Insulin receptor β-subunit (IRK); purchased Enzo Life Sciences (Farmingdale, N.Y.)
Method: (§1) FIG. 4A depicts P2 stimulate IRK autophosphorylation in vitro. IRK was incubated in vitro with 20 μM of peptide P2 (KYCCSRK (SEQ ID NO: 2)), peptide a (KKRILHC (SEQ ID NO: 5)) or peptide b (KRNRYLSF (SEQ ID NO: 6)) and [^32P]-ATP. The [^32P] incorporation was quantified. FIG. 4B depicts P2 stimulate IRK kinase activity in vitro; identification of IRK inhibitory peptide. A similar assay was performed as in FIG. 4A, except that the IRK peptide substrate was included. FIG. 4C depicts P2 is both a substrate and activator of IRK kinase activity in vitro. Assays using sequence variant (P2Y-F; KFCCSRK (SEQ ID NO: 9)) of P2 were performed as in FIG. 4B. FIG. 4D depicts P2 stimulates IRK kinase activity in the cell; peptide “a” is an inhibitor. […] The activity as measured in four livers of P2 injected and four control mice is shown.
(§2) Purified IRK was assayed as previously (Lerner-Marmarosh et al., 2005, PNAS 102:7109-14), using 300 μM IRS-1 Y608 peptide substrate. IRK autophosphorylation was determined as described earlier (Gibbs et al., 2012, J Biol Chem 287:1066-79). hBVR-based peptides (20 μM) were added as activators or inhibitors. […] Incorporation of ^32P was determined by liquid scintillation counting. […] Immunoprecipitates bound to protein A/G-agarose were washed in lysis buffer, followed by IRK assay buffer, and kinase activity was measured as before (Lerner-Marmarosh et al., 2005, PNAS 102:7109-14). […]

[4] = tested on: human skeletal muscle (HSKM) cells; test: 3H-deoxyglucose uptake in human skeletal muscle cells; format: cell-based; conditions: 2 hours treatment, 20 μM peptide (insulin added with 3H-deoxyglucose)
Method: Insulin, when used, was added at the same time as 3H-deoxyglucose. * P<0.05, ** P<0.01. […] HSKM cells were starved overnight as in described in FIG. 2A. […] Glucose uptake was measured as in A. […] Treatment with peptide nanoparticles was for 1 h. Glucose uptake was measured as described in FIG. 2A. Cultures of HEK293 were maintained in DMEM with 10% FBS. Cells were starved overnight in medium with 0.1% FBS. When used, insulin was added to serum-starved cultures at 100 nM. Human skeletal muscle cells were maintained in 1:1 DMEM:F12 medium containing 15% FBS. […] Cells were washed 3 times with cold PBS and solubilized in 150 μl 50 mM NaOH. Radioactivity was measured and normalized to protein concentration. Assessments were made in triplicate and experiments were repeated three times.

[5] = tested on: HepG2 cells; test: 3H-deoxyglucose uptake in HepG2 cells; format: cell-based; conditions: starved overnight, 1 h treatment
Method: FIG. 2A depicts Nanoparticle delivery of peptide P2 to human skeletal muscle (HSKM) cells stimulates glucose uptake. HSKM cells were grown in low glucose, low FBS medium overnight, then media was replaced with PBS containing 1% BSA for 1 h. Cells were pretreated for 2 hours with 20 μM myristoylated P2 or with 10 or 20 μM P2-nanoparticles, followed by measuring 3H-deoxyglucose uptake over a 15 minutes interval. Insulin, when used, was added at the same time as 3H-deoxyglucose. * P<0.05, ** P<0.01. FIG. 2B depicts a time course of glucose uptake stimulation by P2. HSKM cells were starved overnight as in described in FIG. 2A. Medium was changed to glucose-free DMEM with 1% BSA for 1 hour prior to treatment with 20 μM myr-P2 or with P2-nanoparticles for the indicated times. Glucose uptake was measured as in A. FIG. 2C depicts P2-nanoparticles affect glucose uptake in HepG2 cells. HepG2 cells were starved in low glucose DMEM with 0.1% FBS overnight. Treatment with peptide nanoparticles was for 1 h. Glucose uptake was measured as described in FIG. 2A.
Glucose uptake was assessed using 2-deoxy 1-[^3H] glucose as described previously (Lerner-Marmarosh et al., 2005, PNAS 102:7109-14), with modification. […] Radioactivity was measured and normalized to protein concentration. […]

[6] = tested on: GSK3α; test: GSK3α phosphorylation in HEK cells (Western blot); format: cell-based; conditions: 40 μM myristoylated peptide 15 minutes or insulin 100 nM
Method: (§3) FIG. 6A depicts Phosphorylation of GSK3α in P2-stimulated cells. Lysates of cells treated as in FIG. 5A were analyzed by Western blot; the blot was probed sequentially with antibodies to phospho-GSK3α-S21 and GSK3α. The signals were quantified by densitometry. FIG. 6B depicts Phosphorylation of GSK3β in P2-stimulated cells. Identical samples to those in FIG. 6A were probed with anti-phospho-GSK3β-S9 antibody, followed by anti-GSK3β.
HEK cells were incubated in low glucose DMEM with 0.1% FBS, overnight. Cells were treated with 40 μM myristoylated peptide for a total of 15 min; insulin or IGF-1, if used, were included for the final 10 minutes. Cells were harvested, lysed in buffer with triton ×100, and whole cell lysates were analyzed for phosphorylated Akt (T^308, S^473) or GSK3 (α-S^21, β-S^9) species by Western blotting. Each blot was stripped and probed with anti-Akt1 or anti GSK3α or GSK3β antibody, as appropriate, to control for loading.

[7] = tested on: GSK3β; test: GSK3β phosphorylation in HEK cells (Western blot); format: cell-based; conditions: 40 μM myristoylated peptide 15 minutes or insulin 100 nM
Method: as §3, with “anti-GSK3β. […] Cells were harvested, lysed in buffer with triton ×100, and whole cell lysates were analyzed for phosphorylated Akt (T^308, S^473) or GSK3 (α-S^21, β-S^9) species by Western blotting. Each blot was stripped and probed with anti-Akt1 or anti GSK3α or GSK3β antibody, as appropriate, to control for loading.” for “anti-GSK3β.”

[8] = target: T2, IRK (insulin receptor β-subunit); test: IRK autophosphorylation in vitro ([32P]-ATP); format: biochemical; conditions: 20 μM peptide
Method: as §1, §2

[9] = target: T1, IRK; test: IRK kinase activity immunoprecipitated from peptide-treated HEK cells; format: cell-based; parameters: IRK was immunoprecipitated from cell lysates and assayed using the IRS peptide as substrate; endogenous in cells; host or cells: HEK293; conditions: 40 μM myristoylated peptide, 15 minutes
Method: as §1, §2

Compound: CCCCCCCCCCCCCC(=O)N[C@@H](CCCCN)C(=O)N[C@@H](Cc1ccc(O)cc1)C(=O)N[C@@H](CS)C(=O)N[C@@H](CS)C(=O)N[C@@H](CO)C(=O)N[C@@H](CCCNC(=N)N)C(=O)N[C@@H](CCCCN)C(=O)O [P2, myr-KYCCSRK (SEQ ID NO: 2)] (Myristoyl-KYCCSRK-OH; N-terminus and C-terminus assumed)
- Km of the kinase [1]: without changing Km

Compound: O=c1c(-c2ccc(O)cc2)coc2cc(O)cc(O)c12 [genistein]
- Akt activation by either insulin or P2 [2]: prevented Akt activation

Compound: KFCCSRK (SEQ ID NO: 9) [P2Y-F]
- effect on IRK kinase activity / substrate phosphorylation [3]: significant decrease in substrate phosphorylation

Compound: insulin
- glucose uptake [4]: stimulated glucose uptake to about the same extent
- glucose uptake [5]: more robust response
- phosphorylation of GSK3α at S21 [6]: enhanced phosphorylation
- phosphorylation of GSK3β at S9 [7]: enhanced phosphorylation

Compound: myr-KKRILHC (SEQ ID NO: 5) (Myristoyl-KKRILHC) [peptide (a), BVR based peptide]
- IRK autophosphorylation ([32P] incorporation) [8]: did not lead to increased [^32P] incorporation
- effect on IRK kinase activity in the cell [9]: potent inhibitor of the kinase

Compound: myr-KRNRYLSF (SEQ ID NO: 6) (Myristoyl-KRNRYLSF) [peptide (b), BVR based peptide]
- IRK autophosphorylation ([32P] incorporation) [8]: did not lead to increased [^32P] incorporation
